# Measured values: publication PMC8344021, “Discovery of Small Molecule Bak Activator for Lung Cancer Therapy” (Theranostics, 2021)
# Tests used:
# [1] = Toxicity in mice bearing A549 xenografts; type: in vivo, Nu/Nu nude mice; conditions: 28 days
# Description: To assess whether BKA-073 induced suppression of tumor growth occurs through activation of Bak and apoptosis in vivo, representative samples from harvested tumor tissues were analyzed by cross-linking with BMH for Bak oligomerization or by immunohistochemistry (IHC) for active caspase 3 as described, [29], [47]. […] There were no decreases in white cells (WBC), red blood cells (RBC) and platelets (PLT) in blood.
# Figure 5 Toxicity of BKA-073 in vivo. (A-C) Body weight (A), blood analysis (B) and H&E histology of various organs (C) from mice bearing A549 xenografts after treatment with increasing doses (0, 5, 10, 15mg/kg/d) of BKA-073 for 28 days. […]
# Whole blood (250µL) was collected in EDTA-coated tubes via cardiac puncture of anesthetized
# mice for hematology studies. […]
# [2] = test system: A549-P, A549-IRR, H358-P, H358-IRR, H460-P and H460-IRR cells; assay: Colony formation assay in parental and radioresistant cells; type: cell-based, human; conditions: 0.5 µM
# Description: To further investigate whether Bak contributes to radioresistance, we established three lung cancer cell lines with ionizing radiation resistance (i.e. A549-IRR, H358-IRR and H460-IRR) as described, [52], [53]. […] A549-P, […] and H460-P cells remained sensitive to IR, but A549-IRR, H358-IRR and H460-IRR became insensitive to IR. […] To further test this in vivo, NSCLC xenografts derived from A549-P and A549-IRR cell lines were treated with IR (2Gy/exposure, every other day for total of 5 times) or BKA-073 (15 mg/kg/d) for 4 weeks. We observed that lung cancer xenografts derived from A549-IRR cells were resistant to IR treatment whereas xenografts derived from A549-P were sensitive to IR treatment (Figure S7C).
# Figure S7. BKA-073 overcomes radioresistance of lung cancer in vitro and in vivo. (A) Expression levels of Bak in A549-P versus A549-IRR cells, H358-P versus H358 -IRR cells or H460-P versus H460-IRR cells were analyzed by Western blot. (B) A549-P, A549-IRR, H358-P, H358-IRR, H460-P and H460-IRR cells were treated with IR (5Gy), BKA -073 (0.5 µM), followed by colony formation assay. Data represent the mean ± SD, n = 3 per group. ***P < 0.001, ns: not significant, by 2-tailed t test. […]
# Tumor volume was measured once every 2 days. After treatment, mice were sacrificed and tumors were removed and analyzed. […]
# [3] = test system: NSCLC and SCLC cell lines; assay: Dynamic BH3 profiling in panel of NSCLC and SCLC cell lines; type: cell-based, human; conditions: 1μM, 16h
# Description: DBP using Bim peptide was carried out as described previously [24]-[26]. After treatment with BKA-073, venetoclax (ABT-199) or DMSO control for 16h, cells were collected, washed and resuspended at 2 x 10^6 cells/ mL in mannitol experimental buffer (MEB) [150 mM D-mannitol, 10 mM HEPES-KOH (pH 7.5), 50 mM KCl, 20 μM EGTA, 20 μM EDTA, 0.1% BSA, and 5 mM succinate] as described. One volume of the 4x cell suspension was added to one volume of a 4x dye solution containing 4 μM JC-1, […] oligomycin, 0.02% digitonin, 20mM β-mercaptoethanol in MEB. The 2x cell/dye mixture was allowed to rest for 5-10 min at room temperature to allow for permeabilization and JC-1 staining. A total of 15μl of the 2x cell/dye mixture was loaded into a 384-well plate that contained 15µL of Bim BH3 peptide (0.03, 0.1, 0.3, 1, and 3 μM) in MEB, shaken for 15 s inside the reader, and the fluorescence at 590 nm monitored every 5 min for 180 min at 32 °C. The dynamic BH3 profile (∆ % Priming) was calculated as described [24]-[26].
# Figure 1 Discovery of small molecule BKA-073 as a lead compound that targets BH3 domain of Bak and induces mitochondrial priming and apoptosis in lung cancer cells. (A) Schematic illustration of screening strategies used to identify the lead Bak agonist BKA-073 and its chemical structure. […] (C) Expression levels of Bak were analyzed by Western blot in NSCLC and SCLC cell lines. […]
smiles,measurement,setting,value
COc1ccc2nc3ccccc3c(NCCNCC(C)O)c2c1 (centres unmarked) [BKA-073],body weight,"[1]; 5, 10, 15mg/kg/d i.p.",No weight loss
same,kidney (BUN) and liver (ALT and AST) function,"[1]; 5, 10, 15mg/kg/d i.p.",in the normal range
same,"white cells (WBC), red blood cells (RBC) and platelets (PLT) in blood","[1]; 5, 10, 15mg/kg/d i.p.",no decreases
same,tolerability,[1]; 5-15mg/kg/d i.p.,well tolerated without significant toxicity
same,"histopathology of normal tissues (heart, liver, lung, brain, spleen, kidney, intestine)",[1]; 5~15mg/kg/d i.p.,no evidence of normal tissue toxicities
same,sensitivity (colony formation),"[2]; parental cell lines (A549-P, H358-P, H460-P)",sensitive
same,sensitivity (colony formation),"[2]; radioresistant cell lines (A549-IRR, H358-IRR, H460-IRR)",sensitive
same,induction of mitochondrial priming,[3],potently induced
